# Experimental data as given in patent publication US20040029965A1, “Formulations for reducing or eliminating toxicity of enviromental hormones containing ursodeoxycholic acid” (priority 2000, published 2004).
# How the values were obtained:
# [1] = system: C57B1/6J mice; assay: Organ weights (liver, kidneys, testes, epididymides) of mice after a single subcutaneous injection of TCDD; format: in vivo
# Procedure: Male C57B1/6J mice of 5 weeks old having the average weight of 18-22 g which had been bred in CRJ (Charles River in Japan) were purchased and used in this example as experimental animals. Those mice were acclimated under the constant breeding condition, i.e. the temperature of 24±1° C., the humidity of 60±10% and the light and darkness cycle of 12 hours, for one week and thereafter, utilized in the experiment.
# 2,3,7,8-tetrachlorodibenzo-p-dioxin (TCDD) dissolved in toluene (purity of 95% or more as a result of gas chromatography analysis), manufactured by Chem. Services Inc. in USA, was volatilized with nitrogen to obtain powder. The obtained powder was dissolved in a mixed solvent containing acetone and corn oil with a volume ratio of 1:6. The resulting solution each containing 110, 27.5 and 6.9 μg/kg of TCDD was subcutaneously injected to mice at a volume of 5 ml per body weight. […] The mice were supplied with the feed from 10 days before (pre-administration) to 60 days after administration of TCDD (post-administration).
# Upon completion of the experiment for 60 days, the experimental animals were fasted for 24 hours and anesthetized with ether. Then, they were abdominally incised and blood was gathered from abdominal vena cava. They were sacrificed by the release of blood. Liver, kidneys, testes and epididymides were extracted and all the extracted organs were weighed. Only the testes were separately kept and observed under optical and electron microscopes. For biochemical finding test, serum was separated from blood with a centrifuge and the separated serum was analyzed with an automated blood biochemical analyzer, Dimension (Dupont, USA). Blood was put to another blood gathering bottle and then, analyzed with an automated blood cell analyzer, Celldyn (Abbott, USA).
# The results are expressed as Mean±Standard Deviation values. For statistical analysis of the body weight, feed and water uptake, biochemical findings, hematological findings and the weight of organ in an acute toxicity test, verification was performed by one way analysis of variance (ANOVA) in case of equal distribution. In case significance was recognized in ANOVA, the Student's t-test was performed in the levels of p<0.05 and p<0.01.
# The organs, i.e. liver, kidneys, testes and epididymides, were weighed and the results are shown in the following.
# [2] = system: Ovariectomized female B6C3F1 mice; assay: Uterus weight changes by bisphenol A (uterine proliferation); format: in vivo; settings: UDCA 2 mg/day alone, s.c. for 4 days
# Procedure: Ovariectomized female B6C3F1 mice of 5 weeks old, the average weight of which was 18 to 22 g and had been bred in CRJ, were purchased. They were acclimated under the constant breeding conditions, i.e. the constant temperature of 24±1° C., the humidity of 60±10% and the light and darkness cycle of 12 hours, for one week and then, utilized in the experiment. The animals were supplied with solid feed purchased from Purina and supplied with water ad libitum. After acclimation, test materials dissolved in corn oil were subcutaneously injected once a day for 4 days. The test materials used herein, stock solutions of bisphenol A and UDCA were prepared using ethanol. 2 mg of bisphenol A dissolved in 0.2 ml of corn oil was administered to the mice alone or in combination with UDCA once a day. The administration dose of UDCA was 0.2 or 2.0 mg, and corn oil was administered to the solvent control.
# The results are expressed as Mean±Standard Deviation values. ANOVA was performed to evaluate the mean distribution of administered groups. In case that the significance was recognized in ANOVA, the Student's t-test was carried out in the levels of p<0.05 and p<0.01.
# [3] = TCDD 6.9 μg/kg + UDCA 0.125 wt %
# [4] = TCDD 6.9 μg/kg + UDCA 0.25 wt %
# [5] = TCDD 27.5 μg/kg + UDCA 0.125 wt %
# [6] = TCDD 27.5 μg/kg + UDCA 0.25 wt %
# [7] = TCDD 27.5 μg/kg + UDCA 0.5 wt %
# [8] = TCDD 110.0 μg/kg + UDCA 0.125 wt %
# [9] = TCDD 110.0 μg/kg + UDCA 0.25 wt %
# [10] = TCDD 110.0 μg/kg + UDCA 0.5 wt %
structure (smiles),measurement,setting,value
"C[C@H](CCC(=O)O)[C@H]1CC[C@H]2[C@@H]3[C@@H](O)C[C@@H]4C[C@H](O)CC[C@]4(C)[C@H]3CC[C@]12C [UDCA, 3α, 7β-dihydroxy-5β-cholanoic acid]",Left epididymis Relative weight,[1]; [3],0.121 ± 0.011 %
same,Left epididymis Weight,[1]; [3],0.029 ± 0.003 g
same,Left kidney Relative weight,[1]; [3],0.480 ± 0.050%
same,Left kidney Weight,[1]; [3],0.116 ± 0.014 g
same,Left testis Relative weight,[1]; [3],0.297 ± 0.020%
same,Left testis Weight,[1]; [3],0.072 ± 0.006 g
same,Liver Relative weight,[1]; [3],4.069 ± 0.167%
same,Liver Weight,[1]; [3],0.980 ± 0.073 g
same,Right epididymis Relative weight,[1]; [3],0.121 ± 0.014%
same,Right epididymis Weight,[1]; [3],0.029 ± 0.003 g
same,Right kidney Relative weight,[1]; [3],0.511 ± 0.049%
same,Right kidney Weight,[1]; [3],0.123 ± 0.008 g
same,Right testis Relative weight,[1]; [3],0.304 ± 0.020%
same,Right testis Weight,[1]; [3],0.073 ± 0.007 g
same,Left epididymis Relative weight,[1]; [4],0.121 ± 0.011 %
same,Left epididymis Weight,[1]; [4],0.030 ± 0.003 g
same,Left kidney Relative weight,[1]; [4],0.484 ± 0.036%
same,Left kidney Weight,[1]; [4],0.119 ± 0.009 g
same,Left testis Relative weight,[1]; [4],0.287 ± 0.036%
same,Left testis Weight,[1]; [4],0.071 ± 0.008 g
same,Liver Relative weight,[1]; [4],3.870 ± 0.289%
same,Liver Weight,[1]; [4],0.954 ± 0.057 g
same,Right epididymis Relative weight,[1]; [4],0.115 ± 0.009%
same,Right epididymis Weight,[1]; [4],0.029 ± 0.002 g
same,Right kidney Relative weight,[1]; [4],0.500 ± 0.048%
same,Right kidney Weight,[1]; [4],0.123 ± 0.013 g
same,Right testis Relative weight,[1]; [4],0.290 ± 0.030%
same,Right testis Weight,[1]; [4],0.072 ± 0.008 g
same,Left epididymis Relative weight,[1]; TCDD 6.9 μg/kg + UDCA 0.5 wt %,0.121 ± 0.010 %
same,Left epididymis Weight,[1]; TCDD 6.9 μg/kg + UDCA 0.5 wt %,0.029 ± 0.003 g
same,Left kidney Relative weight,[1]; TCDD 6.9 μg/kg + UDCA 0.5 wt %,0.500 ± 0.025%
same,Left kidney Weight,[1]; TCDD 6.9 μg/kg + UDCA 0.5 wt %,0.121 ± 0.007 g
same,Left testis Relative weight,[1]; TCDD 6.9 μg/kg + UDCA 0.5 wt %,0.310 ± 0.050%
same,Left testis Weight,[1]; TCDD 6.9 μg/kg + UDCA 0.5 wt %,0.075 ± 0.010 g
same,Liver Relative weight,[1]; TCDD 6.9 μg/kg + UDCA 0.5 wt %,4.258 ± 0.327%
same,Liver Weight,[1]; TCDD 6.9 μg/kg + UDCA 0.5 wt %,1.028 ± 0.073 g
same,Right epididymis Relative weight,[1]; TCDD 6.9 μg/kg + UDCA 0.5 wt %,0.114 ± 0.015%
same,Right epididymis Weight,[1]; TCDD 6.9 μg/kg + UDCA 0.5 wt %,0.027 ± 0.004 g
same,Right kidney Relative weight,[1]; TCDD 6.9 μg/kg + UDCA 0.5 wt %,0.516 ± 0.043%
same,Right kidney Weight,[1]; TCDD 6.9 μg/kg + UDCA 0.5 wt %,0.125 ± 0.009 g
same,Right testis Relative weight,[1]; TCDD 6.9 μg/kg + UDCA 0.5 wt %,0.307 ± 0.031%
same,Right testis Weight,[1]; TCDD 6.9 μg/kg + UDCA 0.5 wt %,0.074 ± 0.007 g
same,Left epididymis Relative weight,[1]; [5],0.112 ± 0.017%
same,Left epididymis Weight,[1]; [5],0.027 ± 0.003 g
same,Left kidney Relative weight,[1]; [5],0.517 ± 0.056 %
same,Left kidney Weight,[1]; [5],0.127 ± 0.012 g
same,Left testis Relative weight,[1]; [5],0.284 ± 0.025 %
same,Left testis Weight,[1]; [5],0.070 ± 0.005 g
same,Liver Relative weight,[1]; [5],4.832 ± 0.327%
same,Liver Weight,[1]; [5],1.187 ± 0.086 g
same,Right epididymis Relative weight,[1]; [5],0.105 ± 0.015 %
same,Right epididymis Weight,[1]; [5],0.026 ± 0.003 g
same,Right kidney Relative weight,[1]; [5],0.489 ± 0.055 %
same,Right kidney Weight,[1]; [5],0.120 ± 0.013 g
same,Right testis Relative weight,[1]; [5],0.285 ± 0.016 %
same,Right testis Weight,[1]; [5],0.070 ± 0.003 g
same,Left epididymis Relative weight,[1]; [6],0.120 ± 0.018%
same,Left epididymis Weight,[1]; [6],0.029 ± 0.003 g
same,Left kidney Relative weight,[1]; [6],0.508 ± 0.038 %
same,Left kidney Weight,[1]; [6],0.125 ± 0.010 g
same,Left testis Relative weight,[1]; [6],0.293 ± 0.032 %
same,Left testis Weight,[1]; [6],0.072 ± 0.007 g
same,Liver Relative weight,[1]; [6],4.428 ± 0.198%
same,Liver Weight,[1]; [6],1.088 ± 0.030 g
same,Right epididymis Relative weight,[1]; [6],0.124 ± 0.020%
same,Right epididymis Weight,[1]; [6],0.030 ± 0.005 g
same,Right kidney Relative weight,[1]; [6],0.508 ± 0.029 %
same,Right kidney Weight,[1]; [6],0.125 ± 0.007 g
same,Right testis Relative weight,[1]; [6],0.290 ± 0.030 %
same,Right testis Weight,[1]; [6],0.071 ± 0.007 g
same,Left epididymis Relative weight,[1]; [7],0.115 ± 0.015%
same,Left epididymis Weight,[1]; [7],0.025 ± 0.004 g
same,Left kidney Relative weight,[1]; [7],0.539 ± 0.040 %
same,Left kidney Weight,[1]; [7],0.119 ± 0.011 g
same,Left testis Relative weight,[1]; [7],0.304 ± 0.040 %
same,Left testis Weight,[1]; [7],0.067 ± 0.011 g
same,Liver Relative weight,[1]; [7],4.773 ± 0.250%
same,Liver Weight,[1]; [7],1.057 ± 0.069 g
same,Right epididymis Relative weight,[1]; [7],0.132 ± 0.041%
same,Right epididymis Weight,[1]; [7],0.029 ± 0.011 g
same,Right kidney Relative weight,[1]; [7],0.538 ± 0.045 %
same,Right kidney Weight,[1]; [7],0.119 ± 0.009 g
same,Right testis Relative weight,[1]; [7],0.301 ± 0.030 %
same,Right testis Weight,[1]; [7],0.067 ± 0.007 g
same,Liver Relative weight,[1]; [8],5.118%
same,Liver Weight,[1]; [8],0.8153 g
same,Left epididymis Relative weight,[1]; [9],0.122%
same,Left epididymis Weight,[1]; [9],0.0195 g
same,Left kidney Relative weight,[1]; [9],0.6711%
same,Left kidney Weight,[1]; [9],0.1069 g
same,Left testis Relative weight,[1]; [9],0.2153%
same,Left testis Weight,[1]; [9],0.343 g
same,Liver Relative weight,[1]; [9],8.600 ± 3.276%
same,Liver Weight,[1]; [9],1.379 ± 0.327 g
same,Right epididymis Relative weight,[1]; [9],0.080%
same,Right epididymis Weight,[1]; [9],0.0128 g
same,Right kidney Relative weight,[1]; [9],0.6045%
same,Right kidney Weight,[1]; [9],0.0963 g
same,Right testis Relative weight,[1]; [9],0.2279%
same,Left epididymis Relative weight,[1]; [10],0.114 ± 0.025%
same,Left epididymis Weight,[1]; [10],0.021 ± 0.007 g
same,Left kidney Relative weight,[1]; [10],0.704 ± 0.199%
same,Left kidney Weight,[1]; [10],0.121 ± 0.022 g
same,Left testis Relative weight,[1]; [10],0.316 ± 0.074%
same,Left testis Weight,[1]; [10],0.057 ± 0.019 g
same,Right epididymis Relative weight,[1]; [10],0.127 ± 0.024%
same,Right epididymis Weight,[1]; [10],0.024 ± 0.009 g
same,Right kidney Relative weight,[1]; [10],0.659 ± 0.133%
same,Right kidney Weight,[1]; [10],0.113 ± 0.010 g
same,Right testis Relative weight,[1]; [10],0.314 ± 0.067%
same,Right testis Weight,[1]; [10],0.057 ± 0.019 g
same,Mean weight of uterus ± SD,[2],6.96 ± 1.34
